Laboratory results: the supplement of paper PMC10627819

How the values were obtained:
S. pneumoniae D39V [1] = assay: fitness (endpoint OD595 vs no drug) (fraction); higher = more growth
In short: (§1)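 Cultures at OD595 0.01 were dispensed into 384-well plates in TSB, LB Lennox or CY and incubated at 37 °C. Every 30 min for 14 h, OD595 was read and corrected by the first reading. Fitness is the optical density at entry into stationary phase relative to the robust mean of no-drug control wells, capped at 1.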

S. aureus Newman [2] = assay: as above
In short: as §1

B. subtilis 168 [3] = assay: as above
In short: as §1

S. pneumoniae D39V [4] = assay: Bliss interaction score (quartile over a dose matrix) (fitness difference); higher = more antagonism (negative = synergy)
In short: (§2)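 The Bliss score was calculated by subtracting the expected fitness, the product of single-drug values, from the observed fitness. OD595 at entry into stationary phase, over the plate's robust no-drug mean and capped at 1, served as the fitness readout. Single-drug values were inferred from combination data, and scores are summarised by quartiles across technical, biological and donor/recipient replicates.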

S. aureus Newman [5] = assay: as above
In short: as §2

S. aureus DSM 20231 [6] = assay: as above
In short: as §2

B. subtilis 168 [7] = assay: as above
In short: as §2

S. aureus DSM 20231 [8] = assay: fitness (endpoint OD595 vs no drug) (fraction); higher = more growth
In short: as §1
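Throughout, for Bliss interaction score (quartile over a dose matrix): first quartile when negative (synergy) and third quartile when positive (antagonism).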

CCC[C@@H]1C[C@@H](C(=O)N[C@@H]([C@H]2O[C@H](SC)[C@H](O)[C@@H](O)[C@H]2O)[C@H](C)Cl)N(C)C1 [Clindamycin] + CN[C@@H]1[C@H](O[C@H]2[C@H](O[C@H]3[C@H](O)[C@@H](O)[C@H](N=C(N)N)[C@@H](O)[C@@H]3N=C(N)N)O[C@@H](C)[C@]2(O)C=O)O[C@@H](CO)[C@H](O)[C@H]1O [Streptomycin]
fitness
Conditions | partner 1 µg/mL | partner 2 µg/mL | partner 4 µg/mL | partner 8 µg/mL
B. subtilis 168 [3], first compound 0.0625 µg/mL | – | 0.531 | 0.082 | 0.0325
B. subtilis 168 [3], first compound 0.125 µg/mL | – | 0.398 | 0.0693 | 0.0279
B. subtilis 168 [3], first compound 0.25 µg/mL | – | 0.105 | 0.0596 | 0.0359
S. aureus Newman [2], first compound 0.0312 µg/mL | 0.679 | 0.571 | – | –
S. aureus Newman [2], first compound 0.125 µg/mL | 0.123 | 0.0638 | 0.0582 | –
S. pneumoniae D39V [1], first compound 0.0125 µg/mL | – | 0.646 | 0.69 | 0.733
S. pneumoniae D39V [1], first compound 0.015 µg/mL | – | – | 0.837 | 0.786
S. pneumoniae D39V [1], first compound 0.025 µg/mL | – | 0.445 | 0.426 | 0.46
S. pneumoniae D39V [1], first compound 0.03 µg/mL | – | – | 0.71 | 0.646
S. pneumoniae D39V [1], first compound 0.05 µg/mL | – | 0.177 | 0.21 | 0.202
S. pneumoniae D39V [1], first compound 0.06 µg/mL | – | – | 0.586 | 0.544

fitness, one replicate
Conditions | first compound 0.0039 µg/mL | first compound 0.0078 µg/mL | first compound 0.015 µg/mL | first compound 0.0156 µg/mL | first compound 0.03 µg/mL | first compound 0.06 µg/mL
B. subtilis 168 [3], partner 2 µg/mL | ≥ 1 | 0.855 | – | 0.895 | – | –
B. subtilis 168 [3], partner 4 µg/mL | ≥ 1 | 1 | – | 0.951 | – | –
B. subtilis 168 [3], partner 8 µg/mL | 0.994 | 0.85 | – | 0.853 | – | –
S. pneumoniae D39V [1], partner 2 µg/mL | – | – | 0.889 | – | 0.767 | 0.621
S. pneumoniae D39V [1], partner 16 µg/mL | – | – | 0.712 | – | 0.564 | 0.424

Conditions | Bliss interaction score
B. subtilis 168 [7] | -0.101
S. aureus DSM 20231 [6] | -0.0299
S. aureus Newman [5] | -0.0908
S. pneumoniae D39V [4] | -0.0581

CCC[C@@H]1C[C@@H](C(=O)N[C@@H]([C@H]2O[C@H](SC)[C@H](O)[C@@H](O)[C@H]2O)[C@@H](C)O)N(C)C1 [Lincomycin] + Cn1nnc(-c2ccc(-c3ccc(N4C[C@H](CO)OC4=O)cc3F)cn2)n1 [Tedizolid]
fitness
Conditions | partner 0.03125 µg/mL | partner 0.0625 µg/mL | partner 0.125 µg/mL | partner 0.25 µg/mL | partner 0.5 µg/mL
S. aureus DSM 20231 [8], first compound 0.1 µg/mL | – | 0.806 | 0.683 | 0.364 | –
S. aureus DSM 20231 [8], first compound 0.2 µg/mL | – | 0.568 | 0.434 | 0.229 | –
S. aureus DSM 20231 [8], first compound 0.4 µg/mL | – | 0.27 | 0.182 | 0.115 | –
S. pneumoniae D39V [1], first compound 0.2 µg/mL | 0.732 | 0.796 | 0.665 | – | –
S. pneumoniae D39V [1], first compound 0.215 µg/mL | – | – | 0.754 | 0.731 | 0.345
S. pneumoniae D39V [1], first compound 0.4 µg/mL | 0.647 | 0.716 | 0.611 | – | –
S. pneumoniae D39V [1], first compound 0.43 µg/mL | – | – | 0.661 | 0.629 | 0.277
S. pneumoniae D39V [1], first compound 0.8 µg/mL | 0.549 | 0.67 | 0.57 | – | –
S. pneumoniae D39V [1], first compound 0.86 µg/mL | – | – | 0.209 | 0.162 | 0.0655

Conditions | Bliss interaction score
B. subtilis 168 [7] | 0.0845
S. aureus DSM 20231 [6] | -0.114
S. aureus Newman [5] | -0.129
S. pneumoniae D39V [4] | 0.138

CCC[C@@H]1C[C@@H](C(=O)N[C@@H]([C@H]2O[C@H](SC)[C@H](O)[C@@H](O)[C@H]2O)[C@H](C)Cl)N(C)C1 [Clindamycin] + CC(C1CCC(C(O1)OC2C(CC(C(C2O)OC3C(C(C(CO3)(C)O)NC)O)N)N)N)NC [Gentamicin]
main component drawn
Conditions | fitness
B. subtilis 168 [3], first compound 0.0625 µg/mL, partner 0.0625 µg/mL | 0.52
B. subtilis 168 [3], first compound 0.125 µg/mL, partner 0.0625 µg/mL | 0.397
B. subtilis 168 [3], first compound 0.125 µg/mL, partner 0.25 µg/mL | 0.0596
B. subtilis 168 [3], first compound 0.25 µg/mL, partner 0.25 µg/mL | 0.0604
S. aureus Newman [2], first compound 0.0312 µg/mL, partner 0.5 µg/mL | 0.839
S. aureus Newman [2], first compound 0.0312 µg/mL, partner 2 µg/mL | 0.988
S. pneumoniae D39V [1], first compound 0.0125 µg/mL, partner 2 µg/mL | 0.781
S. pneumoniae D39V [1], first compound 0.0125 µg/mL, partner 4 µg/mL | 0.812
S. pneumoniae D39V [1], first compound 0.0125 µg/mL, partner 8 µg/mL | 0.768
S. pneumoniae D39V [1], first compound 0.015 µg/mL, partner 2 µg/mL | 0.732
S. pneumoniae D39V [1], first compound 0.015 µg/mL, partner 4 µg/mL | 0.698
S. pneumoniae D39V [1], first compound 0.015 µg/mL, partner 8 µg/mL | 0.63
S. pneumoniae D39V [1], first compound 0.025 µg/mL, partner 2 µg/mL | 0.528
S. pneumoniae D39V [1], first compound 0.025 µg/mL, partner 4 µg/mL | 0.513
S. pneumoniae D39V [1], first compound 0.025 µg/mL, partner 8 µg/mL | 0.454
S. pneumoniae D39V [1], first compound 0.03 µg/mL, partner 2 µg/mL | 0.454
S. pneumoniae D39V [1], first compound 0.03 µg/mL, partner 4 µg/mL | 0.425
S. pneumoniae D39V [1], first compound 0.03 µg/mL, partner 8 µg/mL | 0.405
S. pneumoniae D39V [1], first compound 0.05 µg/mL, partner 2 µg/mL | 0.239
S. pneumoniae D39V [1], first compound 0.05 µg/mL, partner 4 µg/mL | 0.254
S. pneumoniae D39V [1], first compound 0.05 µg/mL, partner 8 µg/mL | 0.224
S. pneumoniae D39V [1], first compound 0.06 µg/mL, partner 2 µg/mL | 0.299
S. pneumoniae D39V [1], first compound 0.06 µg/mL, partner 4 µg/mL | 0.249
S. pneumoniae D39V [1], first compound 0.06 µg/mL, partner 8 µg/mL | 0.244

fitness, one replicate, main component drawn
Conditions | first compound 0.0039 µg/mL | first compound 0.0078 µg/mL | first compound 0.0156 µg/mL | first compound 0.0312 µg/mL | first compound 0.0625 µg/mL | first compound 0.125 µg/mL
B. subtilis 168 [3], partner 0.0625 µg/mL | 0.962 | 0.911 | 0.828 | – | – | –
B. subtilis 168 [3], partner 0.125 µg/mL | 0.995 | 0.938 | 0.839 | – | – | –
B. subtilis 168 [3], partner 0.25 µg/mL | 0.94 | 0.867 | 0.791 | – | – | –
S. aureus Newman [2], partner 0.375 µg/mL | – | – | – | 0.709 | 0.55 | 0.138
S. aureus Newman [2], partner 0.75 µg/mL | – | – | – | 0.705 | 0.542 | 0.177
S. aureus Newman [2], partner 1.5 µg/mL | – | – | – | 0.576 | 0.254 | 0.119

main component drawn
Conditions | Bliss interaction score
B. subtilis 168 [7] | 0.192
S. aureus DSM 20231 [6] | 0.0691
S. aureus Newman [5] | 0.148
S. pneumoniae D39V [4] | -0.0694

CCC[C@@H]1C[C@@H](C(=O)N[C@@H]([C@H]2O[C@H](SC)[C@H](O)[C@@H](O)[C@H]2O)[C@@H](C)O)N(C)C1 [Lincomycin] + CCCCCCCCCC(=O)N[C@@H]1[C@H]([C@@H]([C@H](O[C@H]1OC2=C3C=C4C=C2OC5=C(C=C(C=C5)[C@H]([C@H]6C(=O)N[C@@H](C7=C(C(=CC(=C7)O)OC8[C@H]([C@H]([C@@H]([C@H](O8)CO)O)O)O)C9=C(C=CC(=C9)[C@H](C(=O)N6)NC(=O)[C@@H]4NC(=O)[C@@H]1C2=CC(=CC(=C2)OC2=C(C=CC(=C2)[C@H](C(=O)N[C@H](CC2=CC(=C(O3)C=C2)Cl)C(=O)N1)N)O)O)O)C(=O)O)O[C@H]1[C@@H]([C@H]([C@@H]([C@H](O1)CO)O)O)NC(=O)C)Cl)CO)O)O [Teicoplanin]
fitness, S. aureus DSM 20231 [8], main component drawn
Conditions | partner 0.1562 µg/mL | partner 0.3125 µg/mL | partner 0.625 µg/mL
first compound 0.1 µg/mL | 0.913 | 0.979 | ≥ 1
first compound 0.2 µg/mL | 0.825 | 0.821 | 0.941

main component drawn
Conditions | Bliss interaction score
B. subtilis 168 [7] | -0.111
S. aureus DSM 20231 [6] | 0.118
S. aureus Newman [5] | 0.179
S. pneumoniae D39V [4] | -0.0397

O=C(O[C@@H]1Cc2c(O)cc(O)cc2O[C@@H]1c1cc(O)c(O)c(O)c1)c1cc(O)c(O)c(O)c1 [EGCG] + CC(C1CCC(C(O1)OC2C(CC(C(C2O)OC3C(C(C(CO3)(C)O)NC)O)N)N)N)NC [Gentamicin]
fitness, main component drawn
Conditions | first compound 6.25 µg/mL | first compound 12.5 µg/mL | first compound 25 µg/mL | first compound 50 µg/mL
B. subtilis 168 [3], partner 0.0625 µg/mL | 0.944 | – | – | –
B. subtilis 168 [3], partner 0.125 µg/mL | 0.814 | – | – | –
B. subtilis 168 [3], partner 0.25 µg/mL | – | – | 0.142 | –
S. aureus Newman [2], partner 0.5 µg/mL | – | 0.738 | 0.69 | 0.584
S. aureus Newman [2], partner 1 µg/mL | – | 0.795 | 0.754 | 0.704
S. aureus Newman [2], partner 2 µg/mL | – | 0.797 | 0.766 | 0.709
S. pneumoniae D39V [1], partner 2 µg/mL | – | 0.922 | 0.947 | 0.913
S. pneumoniae D39V [1], partner 4 µg/mL | – | 0.947 | ≥ 1 | 0.989
S. pneumoniae D39V [1], partner 8 µg/mL | – | 0.936 | 0.945 | 0.942

fitness, S. aureus Newman [2], one replicate, main component drawn
Conditions | first compound 12.5 µg/mL | first compound 25 µg/mL | first compound 50 µg/mL
partner 0.375 µg/mL | 0.802 | 0.805 | 0.993
partner 0.75 µg/mL | 0.773 | 0.762 | 0.62
partner 1.5 µg/mL | 0.251 | 0.0762 | 0

main component drawn
Conditions | Bliss interaction score
B. subtilis 168 [7] | 0.329
S. aureus DSM 20231 [6] | 0.0682
S. aureus Newman [5] | -0.123
S. pneumoniae D39V [4] | 0.09

O=C(N[C@H](CO)[C@H](O)c1ccc([N+](=O)[O-])cc1)C(Cl)Cl [Chloramphenicol] + CCC[C@@H]1C[C@@H](C(=O)N[C@@H]([C@H]2O[C@H](SC)[C@H](O)[C@@H](O)[C@H]2O)[C@@H](C)O)N(C)C1 [Lincomycin]
fitness, S. aureus DSM 20231 [8]
Conditions | first compound 0.75 µg/mL | first compound 1.5 µg/mL | first compound 3 µg/mL
partner 0.1 µg/mL | 0.729 | 0.57 | –
partner 0.2 µg/mL | 0.563 | 0.378 | –
partner 0.4 µg/mL | 0.215 | 0.167 | 0.0709

Conditions | Bliss interaction score
B. subtilis 168 [7] | 0.11
S. aureus DSM 20231 [6] | 0.0462
S. aureus Newman [5] | -0.167
S. pneumoniae D39V [4] | 0.105
